For data set [1], the system named is sputum neutrophil elastase, sputum neutrophil DNA, serum high-sensitivity C-reactive protein. Kind of data set: EMPIRE-CF: biomarkers (sputum DNA and elastase, serum hs-CRP). Format: in vivo, human. Conditions: compared with reductions seen in phase 1 trial. The method, then: Pulmonary exacerbations were analyzed both as the time to first pulmonary exacerbation and the rate of pulmonary exacerbations. The time to first protocol defined-pulmonary exacerbation were analyzed using a Cox proportional hazards model. The number of protocol-defined pulmonary exacerbations reported through the Week 48/Early Termination visit were annualized (where a year was defined as 52 weeks) analyzed using a negative binomial regression. The two active doses were compared to placebo individually as well as pooled together using a contrast statement similar to that used for the primary analysis. Point estimates, standard errors, and 95% CIs for the mean of number of pulmonary exacerbations were presented. The difference in means between each CTX-4430 group from placebo were presented along with standard errors and 95% CIs. Spirometry-based endpoints were analyzed using the same methods as the primary endpoint. Analyses of sputum DNA and elastase and serum high-sensitivity C-reactive protein were based upon descriptive statistics by treatment group.

The conditions of data set [2]: in vivo; cited from earlier work.
Data set [3] has as its system adult patients with cystic fibrosis. In words: EMPIRE-CF: safety and tolerability. Format: in vivo, human. Conditions: 48 weeks. From the text:
Treatment-emergent adverse events (TEAEs), including serious adverse events, were collected at each visit, and summarized by MEDRA system organ class and preferred term, severity, and relatedness to the study drug. An independent data monitoring committee monitored the safety and study conduct at approximately 8-week intervals.

For data set [4] the following is noted: Phase I studies; cited from earlier work.

Each structure is given as a SMILES string.

As to `O=C(O)c1ccc(CN2C[C@@H]3C[C@H]2CN3Cc2ccc(Oc3ccc(-c4ncco4)cc3)cc2)cc1` [acebilustat, 4-{[(1S,4S)-5-({4-[4-oxazol-2-yl-phenoxy]phenyl}methyl)-2,5-diazabicyclo[2.2.1]heptan-2-yl]methyl}benzoic acid], the “sputum neutrophil elastase, sputum neutrophil DNA and serum hs-CRP versus placebo” value in data set [1] is reported as “did not observe similar changes”. Besides, in data set [2], the “AUC0-24 at steady state, fed vs fasting” value was “no differences” and the “Cmax or AUC0-24, healthy volunteers versus patients with CF” value is reported as “No significant differences”. Also, in data set [3], the “severity of the majority of adverse events” value is on record as “mild or moderate”; the “tolerability and risk of infection” value is “safe and well tolerated”. The “tolerability and risk of infection” value in data set [3] (listed as Acebilustat) was “well tolerated with no increased risk of infection”. In data set [4], the “drug-related serious adverse events” value is given as “no drug-related serious AEs” and the tolerability entry is “well tolerated”.
